Data as given in patent US11149052B2, “2′3′-cyclic dinucleotides” (Institute of Organic Chemistry and Biochemistry, ASCR, V.V.I, priority 2018, dated 2021).

Experiments:
[1] = molecular target: T1, AQ STING (truncated human STING G230A-R293Q allelic form) (Homo sapiens, UniProt Q86WV6, G230A/H232R/R293Q); assay: Differential Scanning Fluorimetry with AQ STING; format: binding; details: thermal shift vs apoprotein; 150 μM CDN; 0.1 mg/ml STING protein; SYPRO Orange; read-out: DSF ΔTm (° C.) AQ STING
T1 construct: truncated human WT STING or AQ STING (amino acid residues 140-343); 8xHis (N, cleaved yes); SUMO (N, cleaved yes); made in house; host or cells: E. coli Rosetta-gami B (DE3)
T1 sequence (Q86WV6 140-343 G230A/H232R/R293Q): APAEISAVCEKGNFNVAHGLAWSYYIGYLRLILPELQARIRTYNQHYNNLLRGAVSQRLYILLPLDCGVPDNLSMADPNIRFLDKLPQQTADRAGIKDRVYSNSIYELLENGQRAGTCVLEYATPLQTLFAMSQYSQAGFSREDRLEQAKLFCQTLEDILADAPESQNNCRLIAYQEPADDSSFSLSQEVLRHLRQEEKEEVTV
Procedure: (§1) Purified PCR products were cleaved with restriction enzymes BamHI (cat. #R0136S, NEB, Ipswich, USA) and NotI (cat. #R0189S, NEB, Ipswich, USA) and cloned into the pSUMO vector linearized with the identical enzymes.
(§2) DNase I (cat. #D5025, Sigma Aldrich, Czech Republic) and RNase A (cat. #R6513, Sigma Aldrich, Czech Republic) were added (final concentration […]) together with MgCl2 (final concentration 5 mmol·l^−1) to the homogenate and bacteria were lysed using French Press G-M™ High-Pressure Cell Press Homogenizer (1500 psi, 3 cycles). […] The resin was poured into a chromatography column, washed with 50 ml buffer A (50 mmol·l^−1 TrisCl (pH 8.0), 800 mmol·l^−1 NaCl, 3 mmol·l^−1β-mercaptoethanol; 10% glycerol; 20 mmol·l^−1 imidazole) and 8-His-SUMO tagged STING proteins were eluted with 15 ml buffer A containing 300 mmol·l^−1 imidazole. […] Proteins were concentrated with Amicon® Ultra-15 10 K device (cat. #UFC901008, Merck Millipore, Billerica, USA) and flash frozen in liquid N2.
(§3) Differential Scanning Fluorimetry with WT STING and AQ STING
(§4) 20 μL solutions of the reaction mixtures were pipetted in triplicates into 96 well optical reaction plates and thermal denaturation of samples were performed on real time PCR cycler (LightCycler® 480 Instrument II—Roche, Base^1, Switzerland). The first derivative of the thermal denaturation curves was performed to calculate denaturing temperatures of STING-CDN complexes and STING apoproteins. The thermal shift for each CDN was calculated by subtracting the average denaturing temperature of STING apoprotein from the average denaturing temperature of STING CDN complex.

[2] = molecular target: human wild type STING (WT STING) (Homo sapiens, UniProt Q86WV6, H232R); assay: Digitonin assay using 293T wtSTING-FL reporter cells (ISRE firefly luciferase reporter); format: cell-based; details: 293T wtSTING-FL cells; 30 min in Digitonin buffer, then 5 hours; luciferase read-out; 8-point dose-response curve; read-out: Digitonin assay EC50 (μmol · l^−1) WT STING
human wild type STING (WT STING), sequence (Q86WV6 whole entry H232R): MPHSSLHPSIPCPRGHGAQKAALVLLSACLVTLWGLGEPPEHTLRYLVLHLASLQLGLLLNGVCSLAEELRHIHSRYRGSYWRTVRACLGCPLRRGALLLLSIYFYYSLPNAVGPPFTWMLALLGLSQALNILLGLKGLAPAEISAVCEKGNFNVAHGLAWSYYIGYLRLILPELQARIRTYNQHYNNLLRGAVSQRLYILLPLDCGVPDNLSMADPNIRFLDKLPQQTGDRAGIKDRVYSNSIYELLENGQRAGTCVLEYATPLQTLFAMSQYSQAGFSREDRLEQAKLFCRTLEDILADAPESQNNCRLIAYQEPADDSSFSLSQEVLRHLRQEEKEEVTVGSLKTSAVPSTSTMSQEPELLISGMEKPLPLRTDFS
Source text: Two complementary oligonucleotides of the sequence […] […] […] […] […] The oligonucleotides were mixed in equal molar amounts, hybridized, and cleaved by restriction endonucleases HindIII (cat. #. R0104S, NEB, Ipswich, USA) and BglII (cat. #R0144S, NEB, Ipswich, USA). Ultimately, they were ligated into plasmid pGL4.27 (cat. #E6651, Promega, Madison, USA) linearized with the same enzymes. As result the sequence with four ISRE sites was placed upstream of the minimum promoter of firefly luciferase reporter gene.
After 5 minutes incubation at room temperature (RT), 250 μL of the mixture was added dropwise to the cells in one well.
Transfected cells were seeded onto poly-D-lysine coated six well plates at density 50,000 cells per 1 cm^2 in DMEM medium with high glucose containing 10% heat inactivated FBS, 30 μg/mL blasticidin (cat. #ant-bl-05, InvivoGen, San Diego, USA), 0.06 mg/ml Penicillin G and 0.1 mg/ml Streptomycin Sulfate (both cat. #. L0018, Biowest, Riverside, USA). The medium was replenished every 3-4 days until visible colonies of cells resistant to blasticidin were formed.
Blasticidin resistant cells stably expressing WT STING were further transfected with […] plasmid following the same procedure as described above. […] Homogeneous culture of stably double transfected cells was prepared by limiting dilution of cells in 96 well plates and wells with cells were selected that originated from a single cell.
The medium was removed next day and three fold serial dilutions of compounds in Digitonin buffer containing 50 mmol·l^−1 HEPES (cat. #H3375, Sigma Aldrich, Czech Republic) pH 7.0, 100 mmol·l^−1 KCl, 3 mmol·l^−1 MgCl2, 0.1 mmol·l^−1 DTT (cat. #D0632, Sigma Aldrich, Czech Republic), 85 mmol·l^−1 Sucrose (cat. #S7903, Sigma Aldrich, Czech Republic), 0.2% BSA (cat. #A2153, Sigma Aldrich, Czech Republic), 1 mmol·l^−1 ATP (cat. #A1852, Sigma Aldrich, Czech Republic), 0.1 mmol·l^−1 GTP (cat. #G8877, Sigma Aldrich, Czech Republic), and 10 μg/mL Digitonin A (cat. #D141, Sigma Aldrich, Czech Republic) were added to the cells. The buffer was removed after 30 minutes incubation at 37° C. with 5% CO2, the cells were washed once with 100 μl of cultivation medium, and 100 IA of medium was added to each well. The plates with cells were incubated for 5 hours at 37° C. with 5% CO2, 50 μl of the medium was removed and 30 μl of ONE-Glo™ Luciferase Assay System reagent (cat. #E6120, Promega, Madison, USA) was added to each well. Luminesce was read on Synergy H1 (Biotek, Winooski, USA).

[3] = molecular target: T2, WT STING (truncated human WT STING protein) (Homo sapiens, UniProt Q86WV6, H232R); assay: Differential Scanning Fluorimetry with WT STING; format: binding; details: thermal shift vs apoprotein; 150 μM CDN; 0.1 mg/ml STING protein; SYPRO Orange; read-out: DSF ΔTm (° C.) WT STING
T2 construct: truncated human WT STING or AQ STING (amino acid residues 140-343); 8xHis (N, cleaved yes); SUMO (N, cleaved yes); made in house; host or cells: E. coli Rosetta-gami B (DE3)
T2 sequence (Q86WV6 140-343 H232R): as the sequence (Q86WV6 140-343 G230A/H232R/R293Q) above, with A91G, Q154R counted along it
Procedure: as §1, §2, §3, §4

Q: For Nc1nc2c(ncn2[C@@H]2O[C@@H]3COP(=O)(O)CO[C@H]4[C@@H](F)[C@H](n5cnc6c(N)ncnc65)O[C@@H]4COP(=O)(O)O[C@@H]2[C@@H]3O)c(=O)[nH]1 [Example 10, (1R,6R,8R,9R,10R,16R,18R,19R)-18-(2-amino-6-oxo-6,9-dihydro-1H-purin-9-yl)-8-(6-amino-9H-purin-9-yl)-9-fluoro-3,13,19-trihydroxy-2,4,7,11,14,17-hexaoxa-3λ^5,13λ^5-diphosphatricyclo[14.2.1.0^6,^10]nonadecane-3,13-dione], which ΔTm at 150 µM [1] is on record?
A: Its ΔTm at 150 µM is 27 °C.

Q: What about the EC50 [2] of the same compound?
A: Its EC50 is 20 nM.

Q: What about the ΔTm at 150 µM [3] of the same compound?
A: Its ΔTm at 150 µM is 20.9 °C.

Q: For Nc1ncnc2c1ncn2[C@@H]1O[C@@H]2COP(=O)(O)O[C@@H]3[C@H](O)[C@@H](COP(=O)(O)CO[C@H]2[C@@H]1O)O[C@H]3n1cnc2c(N)ncnc21 [Example 11, (1R,6R,8R,9S,10S,16R,18R,19R)-8,18-bis(6-amino-9H-purin-9-yl)-3,9,13,19-tetrahydroxy-2,4,7,11,14,17-hexaoxa-3λ^5,13λ^5-diphosphatricyclo[14.2.1.0^6,^10]nonadecane-3,13-dione], which ΔTm at 150 µM [1] is on record?
A: Its ΔTm at 150 µM is 9.1 °C.

Q: What about the EC50 [2] of the same compound?
A: Its EC50 is 2500 nM.

Q: And the ΔTm at 150 µM [3]?
A: Its ΔTm at 150 µM is 2.3 °C.

Q: For Nc1ncnc2c1ncn2[C@@H]1O[C@@H]2COP(=O)(O)CO[C@@H]3[C@@H](O)[C@@H](COP(=O)(O)CO[C@@H]2[C@H]1O)O[C@H]3n1cnc2c(N)ncnc21 [Example 12, (1R,7R,9R,10R,11R,17R,19R,20S)-9,19-bis(6-amino-9H-purin-9-yl)-4,10,14,20-tetrahydroxy-2,5,8,12,15,18-hexaoxa-4λ^5,14λ^5-diphosphatricyclo[15.2.1.0^7,^11]icosane-4,14-dione], which ΔTm at 150 µM [1] is on record?
A: The ΔTm at 150 µM was 0 °C.

Q: And the EC50 [2]?
A: The EC50 was over 50000 nM.

Q: And the ΔTm at 150 µM [3]?
A: Its ΔTm at 150 µM is 0 °C.

Q: Which results are given for Nc1ncnc2c1ncn2[C@@H]1O[C@@H]2COP(=O)(O)CO[C@H]3[C@H](O)[C@@H](COP(=O)(O)CO[C@H]2[C@@H]1O)O[C@H]3n1cnc2c(N)ncnc21 [Example 13, (1S,7R,9R,10S,11S,17R,19R,20R)-9,19-bis(6-amino-9H-purin-9-yl)-4,10,14,20-tetrahydroxy-2,5,8,12,15,18-hexaoxa-4λ^5,14λ^5-diphosphatricyclo[15.2.1.0^7,^11]icosane-4,14-dione]?
A: ΔTm at 150 µM [1]: 0.2 °C; EC50 [2]: > 50000 nM; ΔTm at 150 µM [3]: 0 °C

Q: Nc1nc2c(ncn2[C@@H]2O[C@@H]3COP(=O)(O)O[C@@H]4[C@H](O)[C@@H](COP(=O)(O)CO[C@H]3[C@H]2F)O[C@H]4n2cnc3c(N)ncnc32)c(=O)[nH]1 [Example 14, (1R,6R,8R,9R,10R,16R,18R,19R)-8-(2-amino-6-oxo-6,9-dihydro-1H-purin-9-yl)-18-(6-amino-9H-purin-9-yl)-9-fluoro-3,13,19-trihydroxy-2,4,7,11,14,17-hexaoxa-3λ^5,13λ^5-diphosphatricyclo[14.2.1.0^6,^10]nonadecane-3,13-dione] was tested. Which ΔTm at 150 µM [1] did it give?
A: Its ΔTm at 150 µM is 14.2 °C.

Q: What about the EC50 [2] of the same compound?
A: Its EC50 is 80 nM.

Q: What about the ΔTm at 150 µM [3] of the same compound?
A: The ΔTm at 150 µM was 6.7 °C.

Q: What does the source list for Nc1nc2c(ncn2[C@@H]2O[C@@H]3COP(=O)(O)CO[C@H]4C[C@H](n5cnc6c(N)ncnc65)O[C@@H]4COP(=O)(O)O[C@@H]2[C@@H]3O)c(=O)[nH]1 [Example 15, (1R,6R,8R,10S,16R,18R,19R)-18-(2-amino-6-oxo-6,9-dihydro-1H-purin-9-yl)-8-(6-amino-9H-purin-9-yl)-3,13,19-trihydroxy-2,4,7,11,14,17-hexaoxa-3λ^5,13λ^5-diphosphatricyclo[14.2.1.0^6,^10]nonadecane-3,13-dione]?
A: ΔTm at 150 µM [1]: 19.2 °C; EC50 [2]: 10 nM; ΔTm at 150 µM [3]: 14.4 °C

Q: Nc1nc2c(ncn2[C@@H]2O[C@@H]3COP(=O)(O)CO[C@H]4[C@H](O)[C@H](n5cnc6c(N)ncnc65)O[C@@H]4COP(=O)(O)O[C@@H]2[C@@H]3O)c(=O)[nH]1 [Example 16, (1R,6R,8R,9S,10S,16R,18R,19R)-18-(2-amino-6-oxo-6,9-dihydro-1H-purin-9-yl)-8-(6-amino-9H-purin-9-yl)-3,9,13,19-tetrahydroxy-2,4,7,11,14,17-hexaoxa-3λ^5,13λ^5-diphosphatricyclo[14.2.1.0^6,^10]nonadecane-3,13-dione] was tested. Which ΔTm at 150 µM [1] did it give?
A: Its ΔTm at 150 µM is 18.7 °C.

Q: What about the EC50 [2] of the same compound?
A: Its EC50 is 40 nM.

Q: What about the ΔTm at 150 µM [3] of the same compound?
A: The ΔTm at 150 µM was 15.8 °C.

Q: Nc1nc2c(ncn2[C@@H]2O[C@@H]3COP(=O)(O)CO[C@H]4[C@@H](F)[C@H](n5cnc6c(N)ncnc65)O[C@@H]4COP(=O)(O)O[C@@H]2[C@@H]3F)c(=O)[nH]1 [Example 17, (1S,6R,8R,9R,10R,16R,18R,19R)-18-(2-amino-6-oxo-6,9-dihydro-1H-purin-9-yl)-8-(6-amino-9H-purin-9-yl)-9,19-difluoro-3,13-dihydroxy-2,4,7,11,14,17-hexaoxa-3λ^5,13λ^5-diphosphatricyclo[14.2.1.0^6,^10]nonadecane-3,13-dione] was tested. Which ΔTm at 150 µM [1] did it give?
A: The ΔTm at 150 µM was 27.3 °C.

Q: What about the EC50 [2] of the same compound?
A: The EC50 was 20 nM.

Q: And the ΔTm at 150 µM [3]?
A: The ΔTm at 150 µM was 21.7 °C.

Q: Nc1nc2c(ncn2[C@@H]2O[C@@H]3COP(=O)(O)CO[C@H]4[C@@H](F)[C@H](n5cnc6c(N)ncnc65)O[C@@H]4COP(=O)(O)O[C@@H]2C3)c(=O)[nH]1 [Example 18, (1R,6R,8R,9R,10R,16S,18R)-18-(2-amino-6-oxo-6,9-dihydro-1H-purin-9-yl)-8-(6-amino-9H-purin-9-yl)-9-fluoro-3,13-dihydroxy-2,4,7,11,14,17-hexaoxa-3λ^5,13λ^5-diphosphatricyclo[14.2.1.0^6,^10]nonadecane-3,13-dione] was tested. Which ΔTm at 150 µM [1] did it give?
A: Its ΔTm at 150 µM is 23.9 °C.

Q: What about the EC50 [2] of the same compound?
A: The EC50 was 20 nM.

Q: What about the ΔTm at 150 µM [3] of the same compound?
A: The ΔTm at 150 µM was 19 °C.

Q: What does the source list for Nc1nc2c(ncn2[C@@H]2O[C@@H]3COP(=O)(O)CO[C@H]4[C@@H](O)[C@H](n5cnc6c(N)ncnc65)O[C@@H]4COP(=O)(O)O[C@@H]2[C@@H]3F)c(=O)[nH]1 [Example 19, (1S,6R,8R,9R,10S,16R,18R,19R)-18-(2-amino-6-oxo-6,9-dihydro-1H-purin-9-yl)-8-(6-amino-9H-purin-9-yl)-19-fluoro-3,9,13-trihydroxy-2,4,7,11,14,17-hexaoxa-3λ^5,13λ^5-diphosphatricyclo[14.2.1.0^6,^10]nonadecane-3,13-dione]?
A: ΔTm at 150 µM [1]: 25.1 °C; EC50 [2]: 2 nM; ΔTm at 150 µM [3]: 18.2 °C

Q: For Nc1nc2c(ncn2[C@@H]2O[C@@H]3COP(=O)(O)CO[C@H]4C[C@H](n5cnc6c(N)ncnc65)O[C@@H]4COP(=O)(O)O[C@@H]2[C@@H]3F)c(=O)[nH]1 [Example 20, (1S,6R,8R,10S,16R,18R,19R)-18-(2-amino-6-oxo-6,9-dihydro-1H-purin-9-yl)-8-(6-amino-9H-purin-9-yl)-19-fluoro-3,13-dihydroxy-2,4,7,11,14,17-hexaoxa-3λ^5,13λ^5-diphosphatricyclo[14.2.1.0^6,^10]nonadecane-3,13-dione], which ΔTm at 150 µM [1] is on record?
A: The ΔTm at 150 µM was 23.5 °C.

Q: What about the EC50 [2] of the same compound?
A: The EC50 was 5 nM.

Q: What about the ΔTm at 150 µM [3] of the same compound?
A: Its ΔTm at 150 µM is 17.2 °C.
